The values below come from patent US5776957A, “Nornicotine enantiomers for use as a treatment for dopamine related conditions and disease states” (The University of Kentucky Research Foundation, priority 1996, dated 1998).

For data set [1] the following is noted: water, ethyl alcohol, ether, chloroform, benzene, ethyl acetate, carbon disulfide; cited from earlier work.
The conditions of data set [2]: cited from earlier work.
In data set [3] the test system is [3H]DA-preloaded rat striatal slices (nicotinic receptors). Nature of the data set: [3H]overflow (DA release) from [3H]DA-preloaded rat striatal slices. It is filed as cell-based. On the procedure: In vitro pharmacological effects of NIC are generally investigated using either striatal slices or synaptosome preparations preloaded with [^3 H] DA. NIC-evoked [^3 H]overflow is obtained routinely in the presence of nomifensine (10 μM; a DA uptake inhibitor) and for pargyline (10 μM, a monoamine oxidase inhibitor) in the superfusion buffer, such that [^3 H]overflow represents primarily [^3 H]DA rather than [H]DA-metabolites (Zumstein et al., 1981, Hoffmann and Cubeddu, 1982, Dwoskin and Zahniser, 1986, Rapier et al., 1988), and for this reason, [^3 H]overflow also will be referred to as [^3 H] DA release in the proposal.
The present studies use striatal slices superfused with various concentrations of NIC or norNIC for prolonged periods.
FIG. 4. […] Insets illustrate the response to the low concentration range. […] NIC exposure indicated by the bar under time course. Note: 1-min sample collection period. […] N=4 rats.
Rat striatal slices were depolarized with 10 μM NIC, 20 mM K+or 1 Hz, 60 pulses or 3 Hz, 180 pulses electrical field stimulation. […] N=4.
MEC or DHβE was included in the superfusion buffer for 60 min prior to the addition of NIC, and superfusion continued for 60 min in the presence of NIC+antagonist.

Data set [4] has as its system nicotinic receptor sites in the brain. Nature of the data set: displacement of nicotine from nicotinic receptor sites in the brain. It counts as binding.
Data set [5] is described as follows: Locomotor activity assay, acute and repeated treatment, S(-) nicotine challenge, saline challenge. It counts as in vivo, rat. The settings on record: for behavioral sensitization after repeated administration: 8 injections once every 48 hrs, nicotine 1 mg/kg, R(+) 0.3-10 mg/kg, S(-) nornicotine 10 mg/kg; for enabling of sensitization to S(-) nicotine: repeated R(+) nornicotine, S(-) nicotine challenge. On the procedure: (I mg/kg), norNIC (0.3-10 mg/kg) or R(+) norNIC (0.3-10 mg/kg) was administered peripherally (s.c., 8 injections once every 48 hrs) to groups of rats and locomotor activity was assessed for 50 min immediately after each injection.
In the present study, S(-) nicotine (1 mg/kg), R(+) nornicotine (1-10 mg/kg), S(-) nornicotine (1-10 mg/kg), or vehicle (saline) were administered s.c. to groups of rats (n=6) acutely or repeatedly (8 injections once every 48 hrs). Locomotor activity was measured during 50 min sessions immediately following drug or vehicle administration.
Male Sprague-Hawley rats (225-250 g) from Harlan Laboratories were housed two per cage with free access to food and water.
Activity was recorded automatically in a wooden test-chamber measuring 30×28×43 cm high. The chamber had white walls and a wire mesh floor over pine chip bedding. Two photobeams located 4.5 cm above the floor divided the chamber into four equal quadrants. Electromechanical equipment located in an adjacent room recorded photobeam interruptions automatically. A white noise generator provided an ambient 70 dB background noise in the test room in order to minimize extraneous sounds that might influence the animal's behavior in the test chamber. Rats were habituated to the chamber for 50 min on each of three consecutive days.
On the day immediately after the third habituation session, rats were randomly divided into groups (n=6/group) and were administered s.c. either S(-) nicotine (1 mg/kg), R(+) nornicotine (0.3, 1, 3 and 10 mg/kg), or vehicle (saline) to determine acute drug effects on locomotor activity. In a separate experiment, rats (n=6/group) were administered s.c. either S(-) nicotine (1 mg/kg), S(-) nornicotine (0.3, 1, 3 and 10 mg/kg), or vehicle (saline). To determine the effect of repeated drug administration on locomotor activity, drug or vehicle was administered respectively in the test-room once every 48 hrs for a total of 8 injections. After each injection, locomotor activity was recorded during a 50 min session (five 10-min blocks). On the ninth injection day (48 hrs following injection 8), each group of rats was administered a challenge dose (1 mg/kg) of S(-) nicotine in the test-room, and locomotor activity was determined immediately thereafter. On the tenth injection day, each group of rats was administered saline and locomotor activity recorded to determine potential conditioning effects of the repeated drug administration.
Post hoc analysis of pairwise comparisons was performed with Duncan's New Multiple Range test.

The conditions of data set [6]: Stolerman et al. (1995), cited from earlier work.
The subject of data set [7] is N-methyl-D-aspartate(NMDA) receptor. The settings on record: MK-801 site within the channel; cited from earlier work.
The conditions of data set [8]: Stolerman et al., 1984; cited from earlier work.
For data set [9] the following is noted: GC-MS, Deutsch et al., 1992; cited from earlier work.
The conditions of data set [10]: i.p. [14C-N-methyl]NIC, HPLRC; cited from earlier work.
The nature of data set [11]: NIC and metabolites in rat brain after s.c. injection of radiolabelled NIC. It is filed as in vivo. An excerpt: NIC metabolism studies involving HPLRC analysis invariably utilize NIC with a radiolabel (i.e., [^3 H], [^14 C] or [^11 C]) incorporated in the methyl group. However N-demethylated NIC metabolites (norNIC and norCOT) cannot be detected after injection of such radionuclides, since the label is lost in the formation of these metabolites. NIC and four NIC metabolites have recently been detected in rat brain 4 hr after s.c. injection of [2'-^14 C]NIC (FIG. 3, Table I). Three of these metabolites have been identified as COT, norNIC and norCOT. A fourth minor metabolite (Peak B) has not been completely identified but appears to be an N-demethylated metabolite, since it is not detected in the [^3 H-N-methyl]NIC studies.
COT, and therefore, is unlikely to originate from COT N-demethylation. 3-HydroxyCOT and its glucuronide conjugate were not detected as metabolites of either NIC or COT in brain, even though these are major biotransformation products in the periphery (Crooks, 1993).
It appears that NIC metabolites which accumulate with a time course that correlates with the development of behavioral sensitization to NIC have a role in eliciting sensitization to NIC. The inventors have detected NIC, COT, norNIC and norCOT in brain 4 hr following acute s.c. injection of (±)[2'-^14 C]NIC. S(-) [^3 H] -N-methyl]NIC is unsuitable for studying brain metabolism of NIC, since nor-metabolites (i.e., demethylated metabolites) cannot be detected due to [^3 H]-loss during metabolism (Crooks et al., 1995b, AP 7). Thus, commercially available (±)[2'-^14 C]NIC was used to determine NIC metabolites present in brain. This form of radiolabelled NIC provides a metabolically stable [^14 C]-label which allows measurement of all potential NIC metabolites.
A second "metabolite" (Peak A, FIG. 2) was also detected at each time point and most likely results from a combination of metabolic cleavage of the N-methyl group and dissociated-[^3 H], i e, Peak A represents an oxidized 1-carbon unit and indicates the extent of NIC N-demethylation. Note, in our subsequent studies with [2'-^14 C]NIC, Peak A was not observed, which is consistent with our interpretation of the results (Table 1).

“Also recorded” adds a separate entry of the source. Like-named read-outs stand apart in the source and are kept apart here.

For `CN1CCCC1=O` [N-methyl-2-pyrrolidone], the miscibility entry in [1] was “miscible with water”. Moreover, the toxicity entry in [2] (Ames type assays and chronic exposure studies) was “not revealed any significant toxicity”. In addition, the “irritation or sensitization potential” value in data set [2] (animal and human experiments) is reported as “very little irritation or sensitization potential”.

On to `c1cncc([C@H]2CCCN2)c1` [R(+) nornicotine, R-(+) nornicotine], for which the “release of dopamine from presynaptic terminals” value in [3] (neuronal tissue) is “stereoselective and receptor-mediated”. In addition, the “displacement of nicotine from nicotinic receptor sites” value in data set [4] is listed as “cause displacement of nicotine”. Besides, the entries for the “behavioral sensitization after repeated administration” value in [5] and in [5] (listed as R(+) norNIC) were “did not produce behavioral sensitization; also recorded: did not result in behavioral sensitization; also recorded: does not” and “does not”, respectively. Moreover, in data set [5] (48 hrs after S(-) nicotine challenge), the “conditioned response to repeated administration (saline challenge)” value was “did not contribute to the observed behavioral sensitization”. Besides, the “cumulated locomotor activity after saline challenge” value in data set [5] (R(+) experiment, 0.3 mg/kg) is listed as 368 ± 39 number of photobeam interruptions/50 min session; in data set [5] (R(+) experiment, 1.0 mg/kg), 478 ± 40 number of photobeam interruptions/50 min session; in data set [5] (R(+) experiment, 3.0 mg/kg), 498 ± 44 number of photobeam interruptions/50 min session; in data set [5] (R(+) experiment, 10 mg/kg), 234 ± 30 number of photobeam interruptions/50 min session. Further, the “locomotor activity time course” value in data set [5] (acute R(+) 0.3 mg/kg) is on record as “small, but not significant, decreases”; in [5] (acute R(+) 10 mg/kg, initial 20 min), “significantly decreased”; in [5] (acute R(+) 10 mg/kg, latter part of session), “not different from the saline-control group”; in [5] (repeated R(+) 0.3-10 mg/kg) it was “not different from that of the saline-control group”. Also, the “cumulated locomotor activity vs saline-control” value in data set [5] (acute, 0.3 and 10 mg/kg, R(+) experiment) is “depression in activity”; in data set [5] (repeated, R(+) 0.3 mg/kg) it was “decreased significantly”; in data set [5] (repeated, R(+) 1, 3 and 10 mg/kg), “not different from that of the saline-control group”. Also, the “locomotor activity, first 10 min” value in [5] (acute, R(+) 3 mg/kg s.c.) is recorded as 125±17 photobeam interruptions. Further, the “locomotor activity, first 10 min after S(-) nicotine challenge” value in data set [5] (repeated R(+) 1 mg/kg) is 127±12 photobeam interruptions; in data set [5] (repeated R(+) 3 mg/kg), 136+32 photobeam interruptions. The “cumulated locomotor activity after S(-) nicotine challenge” value is recorded as “not different from the saline-control group” in data set [5] (repeated R(+) 0.3 and 1 mg/kg); “significant increases in activity” in data set [5] (repeated R(+) 3 and 10 mg/kg). In addition, the “S(-) nicotine-induced stimulation, first 10 min” value in data set [5] (repeated R(+) 1-10 mg/kg) is “significant (P<0.001) and dose-dependent”; in data set [5] (repeated, R(+) 0.3 mg/kg) it was “not significant”. Further, the results for the “enabling of sensitization to S(-) nicotine” value in data set [5] and in data set [5] (listed as R(+) norNIC) were “enabled sensitization to S(-) nicotine; also recorded: dose-related sensitization to the stimulatory effect of S(-) nicotine” and “enabled an enhanced response to NIC challenge”, respectively. Further, the “tolerance to depressant effect” value in data set [5] (repeated, R(+) 0.3 mg/kg) is given as “tolerance did not develop”; in [5] (repeated, R(+) 10 mg/kg), “tolerance developed”. In addition, the “cross-sensitization after chronic nicotine” value in data set [6] is “increased activity, demonstrating cross-sensitization; also recorded: increased activity (i.e., cross-sensitization)”; in [6] (listed as R(+) norNIC), “cross-sensitization to R(+) norNIC was observed”. Further, in data set [6], the “locomotor activity, acute” value is given as “decreased locomotor activity”.

As to `CNC1(C)C2CCC(C2)C1(C)C` (centres unmarked) [MEC, mecamylamine], the “inhibition of NIC-evoked [3H]overflow” value in [3] (10 μM NIC, concentration-dependent) is recorded as “robustly inhibited”. Further, the “effect on [3H]DA release itself” value in [3] (0.01-100 μM) was “did not alter [^3 H]DA release itself”. Moreover, the “inhibition of norNIC-evoked [3H]overflow” value in data set [3] (high concentrations (100 μM-3 mM) of norNIC) is on record as “ineffective in inhibiting”; in data set [3] (low concentrations (<100 μM) of norNIC), “effectively inhibited”. Moreover, in data set [3] (norNIC concentration-response curve), the “mode of antagonism of norNIC response” value is “noncompetitive”. Further, the NMDA receptor inhibition result in [7] is given as “noncompetitive inhibitor”. Besides, the “block of R(+) norNIC-induced decrease in locomotor activity” value in data set [6] is “blocked”. In addition, the “effect on nicotine interoceptive cues” value in data set [8] is on record as “blocks nicotine interoceptive cues”.

For `CN1C(=O)CC[C@H]1c1cccnc1` [COT, Cotinine], in [3] (concentration-dependent), the “evoked [3H]overflow” value is reported as “concentration dependent increase”. Also, the “presence in rat brain after peripheral NIC injection” value in data set [9] was “not found in rat brain”. Also, the “detection in mouse brain” value in data set [10] was “detected”. In addition, the “detectability in brain at 18 hrs post-injection” value in [11] (18 hrs) is given as “still detectable”. Further, the “residence time in the CNS relative to NIC” value in data set [11] (rat brain) is “longer residence time in the CNS than NIC”. For the same compound, the “presence as metabolite in brain” value in [11] (rat brain, after s.c. radiolabelled NIC) is listed as “major metabolite of NIC in brain”.
